Source: patent US12606528B2, “Methods and materials for inhibiting NF-kB activity” (University of Pittsburgh - Of the Commonwealth System of …, priority 2019, dated 2026)
Read-outs that look alike come from different tables or passages of the source.

Legend:
NF-κB = NF-κB assay: THP1-NF-κB-LUC cells, LPS-stimulated secreted luciferase; assay type: cell-based; details: read-out: IC50 (NF-κB assay)
Summary of the method: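 THP1-NF-κB-LUC cells (25k/well) were pretreated with compounds for 2 h, then stimulated with LPS (10 ng/mL) for 18 h. Secreted luciferase was measured and normalized to vehicle, and IC50 was fitted from the concentration series.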

TNF release = test: TNF assay: TNF release from LPS-stimulated human PBMCs (TNF ELISA); assay type: cell-based; details: PBMC; LPS-stimulated human PBMCs, TNF ELISA; read-out: IC50 (TNF assay)
Method: 25k THP1-NF-κB-LUC cells were dispensed into 384 well plate (per well). Cells were treated with compounds with various concentrations for 2 hours before addition of LPS (10 ng/mL) for 18 hours. Secreted luciferase activity were measured using quant-luc reagents (1 bag of luc reagent dilute to 40 mL, use 10 μL per well). Data were normalized to vehicle control and graphed. Compound IC50 towards inhibiting NF-κB were determined through Prism. Similarly, 10k human PBMCs cells were cultured in 384 well plate (per well). Cells were treated with compounds with various concentrations for 2 hours before addition of LPS (10 ng/ml) for 18 hours, and supernatants were collected and assayed for TNF ELISA. Compound IC50 towards inhibiting TNF release were determined through Prism. • Activity: “+”>10 μM, “++”>1 μM and <10 μM, “+++”>0.1 μM and <1 μM, “++++”<0.1 μM.

[1] = THP1-NF-κB-LUC cells, LPS-stimulated
[2] = THP1-NF-κB-LUC cells, compounds 2 hours before LPS (10 ng/mL) for 18 hours, secreted luciferase

SMILES | IC50 (NF-κB; [1]) [µM] | IC50 (TNF release) [µM] | IC50 (NF-κB; [2]) [µM] | other results
CC(C)S(=O)(=O)[C@@H]1CN(Cc2ccccc2)C[C@H]1S(=O)(=O)c1ccc(F)cc1 (racemic) [BC19643] | > 10 | > 10 | – | –
CC(=O)N1C[C@@H](S(=O)(=O)c2ccc(F)cc2)[C@H](S(=O)(=O)C(C)C)C1 (racemic) [BC19670] | 1 to 10 | 1 to 10 | – | –
CC(C)S(=O)(=O)[C@H]1CN(C(=O)c2ccccc2)C[C@@H]1S(=O)(=O)c1ccc(F)cc1 (racemic) [BC19683] | > 10 | 1 to 10 | – | –
CC(C)S(=O)(=O)[C@H]1CN(C2CCOCC2)C[C@@H]1S(=O)(=O)c1ccc(F)cc1 (racemic) [BC19684] | > 10 | > 10 | – | –
Cn1cnnc1-c1ccc2nc(-c3ccc(F)cc3)c(-c3ccc(F)cc3)nc2c1 [BC19101] | < 0.1 | > 10 | – | –
Cc1nnc(-c2ccc3nc(-c4ccc(F)cc4)c(-c4ccc(F)cc4)nc3c2)[nH]1 [BC19102] | 0.1 to 1 | > 10 | – | –
CN1CCN(C(=O)c2ccc3nc(C(F)(F)F)c(-c4ccc(F)cc4)nc3c2)CC1 [BC19103] | > 10 | > 10 | – | –
CN1CCN(C(=O)c2ccc3nc(C(F)(F)F)c(-c4ccccc4)nc3c2)CC1 [BC19104] | > 10 | > 10 | – | –
CN1CCN(C(=O)c2ccc3nc(C(F)(F)F)c(-c4cccnc4)nc3c2)CC1 [BC19105] | > 10 | > 10 | – | –
CN1CCN(C(=O)c2ccc3nc(C(F)(F)F)c(-c4ccccc4F)nc3c2)CC1 [BC19106] | > 10 | > 10 | – | –
CN1CCN(C(=O)c2ccc3nc(C(F)(F)F)c(-c4ccc(F)cc4F)nc3c2)CC1 [BC19107] | > 10 | > 10 | – | –
CN1CCN(C(=O)c2ccc3nc(C(F)(F)F)c(-c4cc(F)cc(F)c4)nc3c2)CC1 [BC19108] | > 10 | > 10 | – | –
CN1CCN(C(=O)c2ccc3nc(-c4cccs4)c(-c4ccc(F)cc4)nc3c2)CC1 [BC19109] | 0.1 to 1 | > 10 | – | –
CN1CCN(C(=O)c2ccc3nc(-c4ccc(F)cc4)c(C(F)(F)F)nc3c2)CC1 [BC19110] | > 10 | > 10 | – | –
Fc1ccc(-c2nc3cc(-c4nnc[nH]4)ccc3nc2C(F)(F)F)cc1 [BC19111] | > 10 | > 10 | – | –
Cn1nnnc1-c1ccc2nc(C(F)(F)F)c(-c3ccc(F)cc3)nc2c1 [BC19112] | > 10 | > 10 | – | –
Fc1ccc(-c2nc3cc(-c4nnn[nH]4)ccc3nc2C(F)(F)F)cc1 [BC19113] | > 10 | > 10 | – | –
Cc1cnc(-c2ccc3nc(C(F)(F)F)c(-c4ccc(F)cc4)nc3c2)o1 [BC19114] | > 10 | > 10 | – | –
Fc1ccc(-c2nc3cc(-c4ncco4)ccc3nc2C(F)(F)F)cc1 [BC19115] | > 10 | > 10 | – | –
Fc1ccc(-c2nc3cc(-c4nnco4)ccc3nc2C(F)(F)F)cc1 [BC19116] | > 10 | > 10 | – | –
NC(=O)c1ccc2nc(-c3ccc(F)cc3)c(C(F)(F)F)nc2c1 [BC19117] | > 10 | > 10 | – | –
O=C(O)c1ccc2nc(-c3ccc(F)cc3)c(-c3ccc(F)cc3)nc2c1 [BC19118] | 1 to 10 | > 10 | – | –

SMILES | IC50 (NF-κB; [1]) [µM] | IC50 (TNF release) [µM] | IC50 (NF-κB; [2]) [µM] | other results
Cc1cc2c(cc1S(=O)(=O)Nc1ccc3c(c1)OCCO3)OCC(=O)N2 [BC181342] | – | – | 0.1 to 1 | –
Cc1ccc(NS(=O)(=O)c2cc3c(cc2Cl)NC(=O)CO3)cc1F [BC181343] | – | – | < 0.1 | –
Cc1cc2c(cc1S(=O)(=O)Nc1ccccc1Br)OCC(=O)N2 [BC181344] | – | – | 0.1 to 1 | –
CCN(c1ccccc1)S(=O)(=O)c1cc2c(cc1C)NC(=O)CO2 [BC181345] | – | – | > 10 | –
Cc1ccc(NS(=O)(=O)c2cc3c(cc2C)NC(=O)CO3)c(C)c1 [BC181346] | – | – | > 10 | –
CCc1cccc(NS(=O)(=O)c2cc3c(cc2C)NC(=O)CO3)c1 [BC181347] | – | – | 1 to 10 | –
CCN(CC)c1ccc(NS(=O)(=O)c2cc3c(cc2C)NC(=O)CO3)c(C)c1 [BC181348] | – | – | > 10 | –
CCN(c1ccc(OC)cc1)S(=O)(=O)c1cc2c(cc1C)NC(=O)CO2 [BC181349] | – | – | > 10 | –
CC(=O)N1CCOc2cc(S(=O)(=O)Nc3cccc(Cl)c3)c(C)cc21 [BC181350] | – | – | 1 to 10 | –
CC(=O)N1CCOc2cc(S(=O)(=O)Nc3ccccc3C)c(C)cc21 [BC181351] | – | – | – | IC50 (NF-κB): > 10 µM
CCc1ccc(NS(=O)(=O)c2cc3c(cc2C)N(C)CCO3)cc1 [BC181352] | – | – | > 10 | –
Cc1ccc(NS(=O)(=O)c2cc3c(cc2C)NC(=O)CO3)cc1F [BC181353] | – | – | < 0.1 | –
Cc1cc2c(cc1S(=O)(=O)Nc1cccc(Cl)c1)OCC(=O)N2 [BC181354] | – | – | < 0.1 | –
Cc1cc2c(cc1S(=O)(=O)Nc1ccc(Cl)cc1)OCC(=O)N2 [BC181355] | – | – | < 0.1 | –
CCc1ccccc1NS(=O)(=O)c1cc2c(cc1C)NC(=O)CO2 [BC181356] | – | – | > 10 | –
COc1ccc(OC)c(NS(=O)(=O)c2cc3c(cc2C)NC(=O)CO3)c1 [BC181357] | – | – | > 10 | –
COc1ccc(Cl)cc1NS(=O)(=O)c1cc2c(cc1C)NC(=O)CO2 [BC181358] | – | – | > 10 | –
Cc1cccc(N(C)S(=O)(=O)c2cc3c(cc2C)NC(=O)CO3)c1 [BC181359] | – | – | > 10 | –
COc1ccc(OC)c(N(C)S(=O)(=O)c2cc3c(cc2C)NC(=O)CO3)c1 [BC181360] | – | – | > 10 | –
CC(=O)N1CCOc2cc(S(=O)(=O)Nc3ccc(Cl)cc3)c(C)cc21 [BC181361] | – | – | 0.1 to 1 | –
CC(=O)N1CCOc2cc(S(=O)(=O)Nc3ccc(C(C)C)cc3)c(C)cc21 [BC181362] | – | – | 1 to 10 | –
Cc1cc2c(cc1S(=O)(=O)Nc1cccc(F)c1)OCCN2C [BC181363] | – | – | > 10 | –

SMILES | IC50 (NF-κB; [1]) [µM] | IC50 (TNF release) [µM] | IC50 (NF-κB; [2]) [µM] | other results
Cc1cc2c(cc1S(=O)(=O)Nc1ccc(F)c(F)c1)OCC(=O)N2 [BC181364] | – | – | 0.1 to 1 | –
Cc1cc2c(cc1S(=O)(=O)Nc1cc(C(F)(F)F)cc(C(F)(F)F)c1)OCC(=O)N2 [BC181365] | – | – | 1 to 10 | –
Cc1ccc(Cl)cc1NS(=O)(=O)c1cc2c(cc1C)NC(=O)CO2 [BC181366] | – | – | 1 to 10 | –
CCc1ccc(NS(=O)(=O)c2cc3c(cc2C)NC(=O)CO3)cc1 [BC181367] | – | – | < 0.1 | –
Cc1ccc(NS(=O)(=O)c2cc3c(cc2C)NC(=O)CO3)cc1C [BC181368] | – | – | 1 to 10 | –
COc1ccc(NS(=O)(=O)c2cc3c(cc2C)NC(=O)CO3)cc1Cl [BC181369] | – | – | 1 to 10 | –
Cc1ccc(NS(=O)(=O)c2cc3c(cc2C)NC(=O)CO3)cc1 [BC181370] | – | – | < 0.1 | –
CC(=O)c1ccc(NS(=O)(=O)c2cc3c(cc2C)N(C(C)=O)CCO3)cc1 [BC181371] | – | – | > 10 | –
CC(=O)N1CCOc2cc(S(=O)(=O)Nc3ccc(F)cc3F)c(C)cc21 [BC181372] | – | – | 1 to 10 | –
CCc1cccc(NS(=O)(=O)c2cc3c(cc2C)N(C(C)=O)CCO3)c1 [BC181373] | – | – | > 10 | –
CCOc1ccc(NS(=O)(=O)c2cc3c(cc2C)N(C)CCO3)cc1 [BC181374] | – | – | > 10 | –
Cc1cc2c(cc1S(=O)(=O)Nc1ccc(F)cc1Cl)OCC(=O)N2 [BC181375] | – | – | 0.1 to 1 | –
COc1ccc(NS(=O)(=O)c2cc3c(cc2C)NC(=O)CO3)c(OC)c1 [BC181376] | – | – | > 10 | –
Cc1cc2c(cc1S(=O)(=O)Nc1cccc(F)c1)OCC(=O)N2 [BC181377] | – | – | < 0.1 | –
Cc1cc(C)cc(NS(=O)(=O)c2cc3c(cc2C)NC(=O)CO3)c1 [BC181378] | – | – | 1 to 10 | –
CCOc1ccccc1NS(=O)(=O)c1cc2c(cc1C)NC(=O)CO2 [BC181379] | – | – | > 10 | –
Cc1cc2c(cc1S(=O)(=O)Nc1ccccc1Cl)OCC(=O)N2 [BC181380] | – | – | 0.1 to 1 | –
COc1ccc(NS(=O)(=O)c2cc3c(cc2C)N(C(C)=O)CCO3)cc1OC [BC181381] | – | – | > 10 | –
COc1ccc(NS(=O)(=O)c2cc3c(cc2C)N(C(C)=O)CCO3)c(OC)c1 [BC181382] | – | – | > 10 | –
CC(=O)N1CCOc2cc(S(=O)(=O)Nc3ccc(C)c(F)c3)c(C)cc21 [BC181383] | – | – | 0.1 to 1 | –
Cc1cc2c(cc1S(=O)(=O)Nc1ccc(C(C)C)cc1)OCCN2C [BC181384] | – | – | 1 to 10 | –
CC(=O)Nc1ccc(NS(=O)(=O)c2cc3c(cc2C)NC(=O)CO3)cc1 [BC181385] | – | – | > 10 | –
